Measurements taken from US20240325398A1, “COMBINATION THERAPIES” (Infinity Pharmaceuticals, Inc., priority 2014, published 2024).

Tests used:
[1] = test system: SUDHL6; assay: Compound 1 with dexamethasone, CellTiter-Glo viability 72 h, combination index; type: cell-based; details: combination with Compound 1; SUDHL6 cells; CellTiter-Glo 72 h; FIG. 12
Description: The effects of Compound 1 with dexamethasone were examined in a panel of cell lines. Cells were cultured and assayed as follows. Compound 1 was serially diluted with cell culture medium and various DMSO concentrations. The top concentration of Compound 1 exposed to cells was 3 uM for cell lines other than WSU-NHL and DOHH2. For WSU-NHL and DOHH2 cell lines, the top concentration of Compound 1 exposed to the cells was 0.3 uM. Dexamethasone was serially diluted in culture media and phosphate buffered saline (PBS). The top concentration of dexamethasone used on cells was 3 uM. Cells were at least 73% viable and were counted and diluted for plating at a density of about 92,000 cell/mL, 130 uL cells per well in 96 well plates for SUDHL6, Karpas 422, SUDHL4, WSU-NHL, RL, and DOHH2 cell lines. The SUDHL10 cell line was plated at a density of about 46,000 cells/mL, 130 uL cells per well in 96 well plates.
Various concentrations of Compound 1 and various combinations of dexamethasone were added to various wells of cells. Single agents (Compound 1 or dexamethasone alone) were also added to some wells of cells. Cells were incubated with compounds for 72 hours. To assay for effects of the compounds on cell viability, a CellTiter-Glo® luminescent cell viability assay (commercially available) was used. To each plate of cells, 100 uL CellTiter-Glo reagent was added, incubated, and luminescence quantified using a […].
The result for cell line SUDHL6 is depicted in FIG. 12 and in Table 12. […] Table 12 depicts combination index (CI) values for different combinations of dexamethasone/Compound 1 concentrations.

[2] = test system: OCI-Ly3; assay: Combination study, ATPLite 72 h, dose matrix (Synergy Score, CI50)
[3] = test system: U-2932; assay: as above
Description: Cells are thawed from a liquid nitrogen preserved state. Once cells have been expanded and divide at their expected doubling times, screening begins. Cells are seeded in growth media in either black 1536-well or 384-well tissue culture treated plates. Cells are then equilibrated in assay plates via centrifugation and placed in incubators attached to the Dosing Modules at 37° C. for 24 hours before treatment. […] These Tzero (To) plates are read using ultra-sensitive luminescence on Envision plate readers (Perkin Elmer). Treated assay plates are incubated with compound for 72 hours. After 72 hours, plates are developed for endpoint analysis using ATPLite. All data points are collected via automated processes, quality controlled and analyzed using Zalicus software.
where T is treated cell count and V is untreated (vehicle) cell count (at 72 hours). I ranges from 0% (when T=V) to 100% (when T=0). […] The measure of effect in the experiment can be the inhibition of cellular response relative to the untreated level (vehicle alone). […] The inhibition ranges from 0% at the untreated level to 100% when T=0. Inhibition levels are negative for agents that actually increase levels. Other effect measures, such as an activity ratio r=T/V may be more appropriate for some assays. When activity ratios (e.g, fold increase over stimulated control) are being used, the effect can be measured using an induction 1=ln(T/V). With this definition, all effect expressions are the same as for inhibition.
Growth Inhibition (GI) is used as a measure of cell viability. […] A GI reading of 100% represents complete growth inhibition—T72 compound-treated and T0 vehicle signals are matched. […] A GI reading of 200% represents complete death of all cells in the culture well. Compounds reaching an activity plateau of GI 200% are considered cytotoxic. GI is calculated by applying the following test and equation:
Combination analysis data were collected in a 6×6 dose matrix. Synergy is calculated by comparing a combination's response to those of its single compound, against the drug-with-itself dose-additive reference model. Deviations from dose additivity may be assessed visually on an isobologram or numerically with a Combination Index (CI). […] Additive effect is CI=1.0. […] Antagonistic effect is CI>1.0.
To measure combination effects in excess of Loewe additivity, a scalar measure to characterize the strength of synergistic interaction termed the Synergy Score is devised. The Synergy Score is calculated as:
The fractional inhibition for each component agent and combination point in the matrix is calculated relative to the median of all vehicle-treated control wells. The Synergy Score equation integrates the experimentally-observed activity volume at each point in the matrix in excess of a model surface numerically derived from the activity of the component agents using the Loewe model for additivity. Additional terms in the Synergy Score equation (above) are used to normalize for various dilution factors used for individual agents and to allow for comparison of synergy scores across an entire experiment. The inclusion of positive inhibition gating or an Idata multiplier removes noise near the zero effect level, and biases results for synergistic interactions at that occur at high activity levels.
Loewe Volume (Loewe Vol) is used to assess the overall magnitude of the combination interaction in excess of the Loewe additivity model. Loewe Volume is particularly useful when distinguishing synergistic increases in a phenotypic activity (positive Loewe Volume) versus synergistic antagonisms (negative Loewe Volume). […] This model defines additivity as a non-synergistic combination interaction where the combination dose matrix surface should be indistinguishable from either drug crossed with itself. The calculation for Loewe additivity is:

[4] = test system: HBL-1; assay: as above
[5] = test system: SU-DHL-10-epst; assay: as above; details: combination with Compound 1, 72 h
[6] = test system: HH; assay: as above; type: cell-based; details: combination with Compound 1
Description: The method is described as follows.
Additive effect is CI=1.0. […] Antagonistic effect is CI>1.0.
The Synergy Score is calculated as: […]

[7] = test system: NCI-H929; assay: as above; details: combination with Compound 1
[8] = test system: Jeko-1; assay: as above; details: combination with Compound 1
[9] = combination with CAL-101, OCT-Ly3, Example 2
[10] = combination with Cmpd 1, OCT-Ly3, Example 2
[11] = combination with Compound 1, OCI-Ly3, 72 h
[12] = combination with CAL-101, Example 2
[13] = combination with Cmpd 1, Example 2
[14] = combination with Compound 1, 72 h

C[C@@H]1C[C@H]2[C@@H]3CCC4=CC(=O)C=C[C@]4(C)[C@@]3(F)[C@@H](O)C[C@]2(C)[C@@]1(O)C(=O)CO [dexamethasone, (8S,9R,10S,11S,13S,14S,16R,17R)-9-Fluoro-11,17-dihydroxy-17-(2-hydroxyacetyl)-10,13,16-trimethyl-6,7,8,9,10,11,12,13,14,15,16,17-dodecahydro-3H-cyclopenta[a]phenanthren-3-one]
A1 (A1=0.0001 to <1): Synergy Score growth inhibition [2, 9] | Synergy Score inhibition [2, 9] | Synergy Score growth inhibition [2, 10] | Synergy Score inhibition [2, 10] | Synergy Score growth inhibition [2, 11] | Synergy Score inhibition [2, 11]
A2 (A2=1 to <3): Synergy Score growth inhibition [3, 12] | Synergy Score inhibition [3, 12] | Synergy Score inhibition [3, 13] | Synergy Score inhibition [3, 14] | Synergy Score growth inhibition [4, 12] | Synergy Score inhibition [4, 12] | Synergy Score growth inhibition [4, 13] | Synergy Score inhibition [4, 13] | Synergy Score inhibition [4, 14] | Synergy Score inhibition [7]
W (W=≥1): CI50 growth inhibition [2, 10]
U (U=0.7 to <1): CI50 growth inhibition [2, 11] | CI50 inhibition [4, 13] | CI50 inhibition [4, 14] | CI50 inhibition [7] | CI50 growth inhibition [8]
A3 (A3=>3): Synergy Score growth inhibition [3, 13] | Synergy Score growth inhibition [3, 14] | Synergy Score growth inhibition [4, 14] | Synergy Score growth inhibition [5] | Synergy Score inhibition [5] | Synergy Score growth inhibition [6] | Synergy Score inhibition [6] | Synergy Score growth inhibition [7] | Synergy Score growth inhibition [8] | Synergy Score inhibition [8]
T (T=0.5 to <0.7): CI50 growth inhibition [4, 12] | CI50 growth inhibition [4, 13]
synergy: synergy of the combination [1]
S (S=0.01 to <0.5): CI50 growth inhibition [3, 12] | CI50 inhibition [3, 12] | CI50 growth inhibition [3, 13] | CI50 inhibition [3, 13] | CI50 growth inhibition [3, 14] | CI50 inhibition [3, 14] | CI50 inhibition [4, 12] | CI50 growth inhibition [4, 14] | CI50 growth inhibition [5] | CI50 inhibition [5] | CI50 growth inhibition [6] | CI50 inhibition [6] | CI50 growth inhibition [7] | CI50 inhibition [8]
